One series concerns the target T1, JAK3 protein (Homo sapiens, UniProt P52333).
T1 construct: purchased Carna Biosciences
T1 sequence (P52333 1-1124): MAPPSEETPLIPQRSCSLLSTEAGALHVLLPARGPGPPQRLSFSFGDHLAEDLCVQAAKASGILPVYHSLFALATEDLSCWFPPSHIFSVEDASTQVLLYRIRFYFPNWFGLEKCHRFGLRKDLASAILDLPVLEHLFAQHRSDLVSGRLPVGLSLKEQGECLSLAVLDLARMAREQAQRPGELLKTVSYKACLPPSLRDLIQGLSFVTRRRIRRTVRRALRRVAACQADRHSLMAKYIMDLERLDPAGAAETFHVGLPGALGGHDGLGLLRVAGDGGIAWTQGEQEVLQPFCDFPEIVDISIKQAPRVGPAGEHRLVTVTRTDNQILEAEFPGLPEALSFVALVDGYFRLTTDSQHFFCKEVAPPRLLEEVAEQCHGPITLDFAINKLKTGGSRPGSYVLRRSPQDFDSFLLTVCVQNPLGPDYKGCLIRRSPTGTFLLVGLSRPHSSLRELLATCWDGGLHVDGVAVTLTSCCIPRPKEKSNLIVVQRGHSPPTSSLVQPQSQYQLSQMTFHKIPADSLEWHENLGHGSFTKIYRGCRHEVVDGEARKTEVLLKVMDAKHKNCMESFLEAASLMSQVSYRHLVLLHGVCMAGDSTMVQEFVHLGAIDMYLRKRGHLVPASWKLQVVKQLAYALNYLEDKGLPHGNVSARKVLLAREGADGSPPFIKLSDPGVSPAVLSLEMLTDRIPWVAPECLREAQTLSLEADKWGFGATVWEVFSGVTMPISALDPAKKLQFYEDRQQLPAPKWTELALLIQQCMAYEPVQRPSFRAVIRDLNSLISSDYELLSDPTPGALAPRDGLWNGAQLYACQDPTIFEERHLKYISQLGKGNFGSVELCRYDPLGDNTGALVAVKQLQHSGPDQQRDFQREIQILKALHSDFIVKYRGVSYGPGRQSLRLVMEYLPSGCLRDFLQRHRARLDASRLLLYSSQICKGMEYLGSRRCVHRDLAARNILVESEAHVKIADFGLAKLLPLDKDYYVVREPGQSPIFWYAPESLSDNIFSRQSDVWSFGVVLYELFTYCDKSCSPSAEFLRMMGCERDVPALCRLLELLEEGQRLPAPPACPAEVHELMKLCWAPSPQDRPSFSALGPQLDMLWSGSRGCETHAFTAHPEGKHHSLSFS
Put plainly: In vitro JAK3 kinase activity assay (HTRF kinEASE TK). The format is biochemical. Particulars: 0.75 μM ATP, 25 minutes, room temperature; read-out: IC50 JAK3 (enzyme activity assay). In short, it runs like this:
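Recombinant JAK3 ([…]) with 1 μM biotinylated TK substrate peptide and 0.75 μM ATP, 5 mM MgCl2, 1 mM DTT, 1% DMSO; 25 min at room temperature. HTRF read-out (SA-XL665, TK-antibody, overnight) as 665/620 ratio; compounds 10 μM–0.04 nM, 4-fold, duplicates; IC50 from 4-parameter fit.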
In general terms: In TR-FRET formats the signal depends on donor and acceptor labels being close together.

The next series in a line: Mouse pharmacokinetics. The format is in vivo. Particulars: CD-1 mice, 5 mg/kg, P.O. The procedure:
Test compound was intravenously (IV) or orally (PO) administrated to CD-1 mice. Blood samples were collected at different time points as indicated below. The concentration of the compounds in the mouse plasma was determined by LC-MS/MS and related parameters were calculated. The details are as follows: the required amount of the test product was taken to prepare a solution of the required concentration for intravenous injection or oral administration. The age of the animals was about 6-8 weeks at the beginning of the dosing experiment. Blood sampling time points are 0.083 h, 0.25 h, 0.5 h, 1 h, 2 h, 4 h, 8 h and 24 h after compound administration. The Phoenix WinNonlin 7.0 software was used to calculate the pharmacokinetic parameters through the blood drug concentration data at different time points.

pIC50: −log10 of the molar value.

By pIC50 is commonly meant −log10 of the IC50, conventionally taken in molar units. By Cmax is commonly meant the maximum level reached in the sampled fluid or tissue. What is called half-life is the time needed for the level to fall by half in the phase considered.

For the compound `CC[C@H](C(=O)Nc1nccc2c(-c3nc(Nc4cn(C)nc4OC)ncc3C)c[nH]c12)N1CCN(C)CC1` [Example 4, (R)—N-(3-(2-((3-Methoxy-1-methyl-1H-pyrazol-4-yl)amino)-5-methylpyrimidin-4-yl)-1H-pyrrolo[2,3-c]pyridin-7-yl)-2-(4-methylpiperazin-1-yl)butanamide], the pIC50 on JAK3 protein is greater than 6.30. The F in “Mouse pharmacokinetics” stood at 106%. In the series “Mouse pharmacokinetics” (mouse, po, plasma), this compound had a Cmax of 1.06 µg/mL and a half-life of 3.79 h. Besides, the AUC(0-t) in the series “Mouse pharmacokinetics” (mouse, po, plasma, read-out: AUC0-24 hr) was determined as 10.2 µg·h/mL.

Source of the values: patent publication US12234232B2, “Aromatic heterocyclic compound with kinase inhibitory activity” (SHANGHAI ENNOVABIO PHARMACEUTICALS CO., LTD., priority 2018, dated 2025).
